Legend:
BeWo = experiment: Antiproliferative activity against human BeWo cells assessed as reduction in cell viability after 72 hrs by MTT assay; assay type: functional, cell-based
MCF7 = experiment: Antiproliferative activity against human MCF7 cells assessed as reduction in cell viability measured after 48 hrs by SRB assay; assay type: functional, cell-based; conditions: MCF7, 48 h
HT-29 = experiment: cells; conditions: Homo sapiens, HT-29, 72 h
EL4 = experiment: Antiproliferative activity against mouse EL4 cells assessed as cell growth inhibition incubated for 72 hrs by MTT assay; assay type: functional, cell-based; conditions: EL4, 72 h
P388 = experiment: Antiproliferative activity against mouse P388 cells assessed as cell growth inhibition incubated for 72 hrs by MTT assay; assay type: functional, cell-based; conditions: P388, 72 h
[1] = Antiproliferative activity against human BC cells assessed as growth inhibition; assay type: functional, cell-based
KB = experiment: Antiproliferative activity against human KB cells assessed as reduction in cell viability incubated for 48 hrs by MTT assay; assay type: functional, cell-based
[2] = Cytotoxicity against African green monkey Vero cells; assay type: toxicity, cell-based; conditions: chlorocebus sabaeus, read-out: TC50 (the source's name)
Plasmodium falciparum [3] = experiment: Antimalarial activity against Plasmodium falciparum K1 assessed as inhibition of malarial growth; assay type: functional, organism-based
Plasmodium falciparum [4] = experiment: microbe, parasite or virus in culture; conditions: K1
Description: Antiplasmodial activity against Plasmodium falciparum K1 assessed as inhibition of parasitic growth

Plasmodium falciparum [5] = experiment: Antiplasmodial activity against Plasmodium falciparum NF54 assessed as reduction in malarial growth; assay type: functional, organism-based
Plasmodium falciparum [6] = experiment: Antimalarial activity against Plasmodium falciparum HB3 assessed as inhibition of malarial growth; assay type: functional, organism-based

`C[C@@H]1CC[C@H]2[C@@H](C)C(CCS(=O)(=O)CCC3O[C@@H]4O[C@]5(C)CC[C@@H]6[C@@H](C)CC[C@H]([C@@H]3C)[C@]46OO5)O[C@H]3O[C@@]4(C)CC[C@@H]1[C@]32OO4` (some centres not stated) gave an IC50 (BeWo) of 1590 nM, an IC50 (MCF7) of 40 nM and an IC50 (HT-29) of 580 nM. It also gave an IC50 (EL4) of 820 nM and an IC50 (P388) of 8550 nM.

`CCCCC[C@@]1(C[C@@H]2C(=O)O[C@H]3O[C@@]4(C)CC[C@H]5[C@H](C)CC[C@@H]2[C@@]35OO4)O[C@H]2O[C@@]3(C)CC[C@H]4[C@H](C)CC[C@@H]([C@H]1C)[C@@]24OO3` gave an IC50 [1] of 36000 nM, an IC50 (KB) of 23000 nM and a CC50 [2] of 63000 nM.

`C[C@H]1[C@H](CCCC[C@H]2O[C@H]3O[C@@]4(C)CC[C@H]5[C@H](C)CC[C@@H]([C@H]2C)[C@@]35OO4)O[C@H]2O[C@@]3(C)CC[C@H]4[C@H](C)CC[C@@H]1[C@@]24OO3` showed an IC50 [1] of 1600 nM, an IC50 (KB) of 1800 nM and a CC50 [2] of 10000 nM. It also gave an IC50 (Plasmodium falciparum [3]) of 1.4 nM.

For `C[C@@H]1CC[C@H]2[C@@H](C)C(CSCCSCC3O[C@H]4O[C@@]5(C)CC[C@H]6[C@H](C)CC[C@@H]([C@H]3C)[C@@]46OO5)O[C@H]3O[C@@]4(C)CC[C@@H]1[C@]32OO4` (some centres not stated), the IC50 (Plasmodium falciparum [4]) was 7.4 nM.

Work on `C[C@@H]1CC[C@H]2[C@H](C[C@]3(CCCCc4ccccc4)O[C@H]4O[C@@]5(C)CC[C@H]6[C@H](C)CC[C@@H]([C@H]3C)[C@@]46OO5)C(=O)O[C@H]3O[C@@]4(C)CC[C@@H]1[C@]32OO4` yielded an IC50 [1] of 1200 nM, an IC50 (KB) of 5700 nM and a CC50 [2] of 2400 nM. It also gave an IC50 (Plasmodium falciparum [5]) of 3.4 nM.

`C[C@@H]1CC[C@H]2[C@@H](C)C(CCOC(=O)c3ccc(C(=O)OCCC4O[C@H]5O[C@@]6(C)CC[C@H]7[C@H](C)CC[C@@H]([C@H]4C)[C@@]57OO6)cc3)O[C@H]3O[C@@]4(C)CC[C@@H]1[C@]32OO4` (some centres not stated) showed an IC50 (Plasmodium falciparum [4]) of 4.6 nM.

Work on `C[C@@H]1CC[C@H]2[C@@H](C)C(CCOC(=O)CCC(=O)OCCC3O[C@H]4O[C@@]5(C)CC[C@H]6[C@H](C)CC[C@@H]([C@H]3C)[C@@]46OO5)O[C@H]3O[C@@]4(C)CC[C@@H]1[C@]32OO4` (some centres not stated) yielded an IC50 (Plasmodium falciparum [6]) of 1.4 nM and an IC50 (Plasmodium falciparum [3]) of 1.8 nM.

With `C[C@@H]1CC[C@H]2[C@@H](C)C(CSCCCCCSCC3O[C@@H]4O[C@]5(C)CC[C@@H]6[C@@H](C)CC[C@H]([C@@H]3C)[C@]46OO5)O[C@H]3O[C@@]4(C)CC[C@@H]1[C@]32OO4` (some centres not stated) the IC50 (Plasmodium falciparum [4]) was 12 nM.

`C[C@@H]1CC[C@H]2[C@@H](C)C(CCOC(=O)CCCC(=O)OCCC3O[C@H]4O[C@@]5(C)CC[C@H]6[C@H](C)CC[C@@H]([C@H]3C)[C@@]46OO5)O[C@H]3O[C@@]4(C)CC[C@@H]1[C@]32OO4` (some centres not stated) showed an IC50 (Plasmodium falciparum [6]) of 1.1 nM and an IC50 (Plasmodium falciparum [3]) of 2.4 nM.

With `C[C@@H]1CC[C@H]2[C@@H](C)C(CCNC(=O)CCC(N)C(=O)NCCC3O[C@H]4O[C@@]5(C)CC[C@H]6[C@H](C)CC[C@@H]([C@H]3C)[C@@]46OO5)O[C@H]3O[C@@]4(C)CC[C@@H]1[C@]32OO4` (some centres not stated) the IC50 (BeWo) was over 27300 nM, the IC50 (MCF7) was 20900 nM and the IC50 (HT-29) was 8900 nM. For the same molecule, the IC50 (EL4) was 22500 nM and the IC50 (P388) was 21300 nM.

Work on `C[C@@H]1CC[C@H]2[C@@H](C)C(CCOCc3ccccc3COCCC3O[C@H]4O[C@@]5(C)CC[C@H]6[C@H](C)CC[C@@H]([C@H]3C)[C@@]46OO5)O[C@H]3O[C@@]4(C)CC[C@@H]1[C@]32OO4` (some centres not stated) yielded an IC50 (Plasmodium falciparum [6]) of 1.3 nM and an IC50 (Plasmodium falciparum [3]) of 2.9 nM.

Molecule `C[C@@H]1CC[C@H]2[C@@H](C)C(CCS(=O)(=O)CCCS(=O)(=O)CCC3O[C@@H]4O[C@]5(C)CC[C@@H]6[C@@H](C)CC[C@H]([C@@H]3C)[C@]46OO5)O[C@H]3O[C@@]4(C)CC[C@@H]1[C@]32OO4` (some centres not stated) has an IC50 (BeWo) of 11200 nM, an IC50 (MCF7) of 7360 nM and an IC50 (HT-29) of 500 nM. For the same molecule, the IC50 (EL4) was 13100 nM and the IC50 (P388) was 11000 nM.

For `C[C@@H]1CC[C@H]2[C@@H](C)C(CCOCc3cccc(COCCC4O[C@H]5O[C@@]6(C)CC[C@H]7[C@H](C)CC[C@@H]([C@H]4C)[C@@]57OO6)c3)O[C@H]3O[C@@]4(C)CC[C@@H]1[C@]32OO4` (some centres not stated), the IC50 (Plasmodium falciparum [6]) was 2.1 nM and the IC50 (Plasmodium falciparum [3]) was 2.7 nM.

For `C[C@@H]1CC[C@H]2[C@@H](C)C(CSCCCCSC3O[C@H]4O[C@@]5(C)CC[C@H]6[C@H](C)CC[C@@H]([C@H]3C)[C@@]46OO5)O[C@H]3O[C@@]4(C)CC[C@@H]1[C@]32OO4` (some centres not stated), the IC50 (Plasmodium falciparum [4]) was 5.7 nM.

`C[C@H]1[C@H](CCCCC[C@H]2O[C@H]3O[C@@]4(C)CC[C@H]5[C@H](C)CC[C@@H]([C@H]2C)[C@@]35OO4)O[C@H]2O[C@@]3(C)CC[C@H]4[C@H](C)CC[C@@H]1[C@@]24OO3` showed an IC50 [1] of 360 nM, an IC50 (KB) of 760 nM and a CC50 [2] of 2800 nM. For the same molecule, the IC50 (Plasmodium falciparum [3]) was 0.91 nM.

In the case of `C[C@H]1[C@@H](CCCCNC(=O)CC[C@H]2O[C@H]3O[C@@]4(C)CC[C@H]5[C@H](C)CC[C@@H]([C@H]2C)[C@@]35OO4)O[C@H]2O[C@@]3(C)CC[C@H]4[C@H](C)CC[C@@H]1[C@@]24OO3`, the IC50 (BeWo) is reported as over 30200 nM, the IC50 (MCF7) is reported as over 30200 nM and the IC50 (HT-29) is reported as 30500 nM. The IC50 (EL4) was over 30200 nM and the IC50 (P388) was over 30200 nM.

`C[C@@H]1CC[C@H]2[C@@H](C)C(CCOC(=O)c3ccccc3C(=O)OCCC3O[C@H]4O[C@@]5(C)CC[C@H]6[C@H](C)CC[C@@H]([C@H]3C)[C@@]46OO5)O[C@H]3O[C@@]4(C)CC[C@@H]1[C@]32OO4` (some centres not stated) showed an IC50 (Plasmodium falciparum [6]) of 1.6 nM and an IC50 (Plasmodium falciparum [3]) of 2.6 nM.

Molecule `C[C@@H]1CC[C@H]2[C@H](C[C@]3(Cc4cccc(F)c4)O[C@H]4O[C@@]5(C)CC[C@H]6[C@H](C)CC[C@@H]([C@H]3C)[C@@]46OO5)C(=O)O[C@H]3O[C@@]4(C)CC[C@@H]1[C@]32OO4` has an IC50 [1] of 3500 nM, an IC50 (KB) of 4000 nM and a CC50 [2] of 5500 nM.

Work on `C[C@@H]1CC[C@H]2[C@@H](C)C(CSCCCSCC3O[C@H]4O[C@@]5(C)CC[C@H]6[C@H](C)CC[C@@H]([C@H]3C)[C@@]46OO5)O[C@H]3O[C@@]4(C)CC[C@@H]1[C@]32OO4` (some centres not stated) yielded an IC50 (Plasmodium falciparum [4]) of 13 nM.

With `C[C@@H]1CC[C@H]2[C@H](C[C@]3(Cc4ccc(F)cc4)O[C@H]4O[C@@]5(C)CC[C@H]6[C@H](C)CC[C@@H]([C@H]3C)[C@@]46OO5)C(=O)O[C@H]3O[C@@]4(C)CC[C@@H]1[C@]32OO4` the IC50 [1] was 7400 nM, the IC50 (KB) was 7700 nM and the CC50 [2] was 1100 nM.

`C[C@H]1[C@@H](CCNC(=O)CC[C@H]2O[C@H]3O[C@@]4(C)CC[C@H]5[C@H](C)CC[C@@H]([C@H]2C)[C@@]35OO4)O[C@H]2O[C@@]3(C)CC[C@H]4[C@H](C)CC[C@@H]1[C@@]24OO3` gave an IC50 (BeWo) of 12100 nM, an IC50 (MCF7) of 8 nM and an IC50 (HT-29) of 1100 nM. It also gave an IC50 (EL4) of 10100 nM and an IC50 (P388) of 16800 nM.

With `C[C@@H]1CC[C@H]2[C@@H](C)C(CCOC(=O)c3cccc(C(=O)OCCC4O[C@H]5O[C@@]6(C)CC[C@H]7[C@H](C)CC[C@@H]([C@H]4C)[C@@]57OO6)c3)O[C@H]3O[C@@]4(C)CC[C@@H]1[C@]32OO4` (some centres not stated) the IC50 (Plasmodium falciparum [4]) was 42.2 nM.

`CO[C@@]12[C@H](COC(N)=O)C3=C(C(=O)C(C)=C(N)C3=O)N1C[C@@H]1N[C@@H]12` [MITOMYCIN] gave an IC50 (BeWo) of 60 nM, an IC50 (MCF7) of 60 nM and an IC50 (HT-29) of 60 nM. For the same molecule, the IC50 (EL4) was 60 nM and the IC50 (P388) was 60 nM.

— ChEMBL document CHEMBL5257025, “Artemisinin-Derived Dimers: Potent Antimalarial and Anticancer Agents” (J Med Chem, 2016)
